The test system of one experiment is IL-10 mRNA. Briefly: TNBS-induced colitis in mice, colonic IL-10 mRNA by RT-PCR. Format: in vivo. To be noted: dose equimolar to 50 mg/kg mesalamine; normalized to GAPDH, ratio to healthy controls. The procedure: (§1) The same model was used as described above. In this example, the effects of mesalamine (50 mg/kg) were compared to those of equimolar doses of Compound XXXV. In addition to measuring the severity of colitis by measuring disease activity score and MPO activity, tissues were processed for measurement of a number of genes for inflammatory cytokines and other mediators.
(§2) In particular, mRNA expression in mice of tumour necrosis factor-alpha (TNF-α), interferon gamma (IFN-γ), colonic interleukin (IL)-1, IL-2, IL-10, IL-12 p40, RANTES, cyclooxygenase (COX)-1, COX-2, constitutive endothelial nitric oxide synthase (eNOS), and inducible NOS (iNOS) was measured as described in Wallace et al. (1999) Gastroenterology 117: 557-566, incorporated herein by reference.
(§3) Briefly, reverse transcription-polymerase chain reaction (RT-PCR) was used to detect and quantify mRNA of the particular cytokine/chemokine/enzyme. Glyceraldehyde-3-phosphate dehydrogenase (GAPDH) was used as the “housekeeping gene” for mRNA expression (i.e., as an internal control). For each sample, the ratio of the amplification of the target gene to the amplification of GAPDH (expression of each is measured by performing densitometry on gels) was obtained. […]

Another experiment deals with iNOS mRNA. Briefly: TNBS-induced colitis in mice, colonic iNOS mRNA by RT-PCR. Format: in vivo. Conditions: dose equimolar to 50 mg/kg mesalamine; FIG. 14. The procedure:
as §1, §2, §3

For `Nc1ccc(O)c(C(=O)Oc2ccc(-c3cc(=S)ss3)cc2)c1` [Compound XXXV, 5-Amino-2-hydroxy-benzoic acid 4-(5-thioxo-5H-[1,2]dithiol-3-yl)-phenyl ester], the “Expression of IL-10 mRNA” value in the experiment with IL-10 mRNA is listed as “did not suppress expression of IL-10 mRNA”. The “iNOS mRNA expression” value in the experiment with iNOS mRNA is “suppressed”.

The values above are taken from US7910568B2, “Derivatives of 4- or 5-aminosalicylic acid” (Antibe Therapeutics Inc., priority 2005, dated 2011).
